Data as given in PMC7513592 (RSC Medicinal Chemistry, 2020).

Target: T1, hTRPV6 (Homo sapiens, UniProt Q9H1D0)
T1 sequence (Q9H1D0 1-765): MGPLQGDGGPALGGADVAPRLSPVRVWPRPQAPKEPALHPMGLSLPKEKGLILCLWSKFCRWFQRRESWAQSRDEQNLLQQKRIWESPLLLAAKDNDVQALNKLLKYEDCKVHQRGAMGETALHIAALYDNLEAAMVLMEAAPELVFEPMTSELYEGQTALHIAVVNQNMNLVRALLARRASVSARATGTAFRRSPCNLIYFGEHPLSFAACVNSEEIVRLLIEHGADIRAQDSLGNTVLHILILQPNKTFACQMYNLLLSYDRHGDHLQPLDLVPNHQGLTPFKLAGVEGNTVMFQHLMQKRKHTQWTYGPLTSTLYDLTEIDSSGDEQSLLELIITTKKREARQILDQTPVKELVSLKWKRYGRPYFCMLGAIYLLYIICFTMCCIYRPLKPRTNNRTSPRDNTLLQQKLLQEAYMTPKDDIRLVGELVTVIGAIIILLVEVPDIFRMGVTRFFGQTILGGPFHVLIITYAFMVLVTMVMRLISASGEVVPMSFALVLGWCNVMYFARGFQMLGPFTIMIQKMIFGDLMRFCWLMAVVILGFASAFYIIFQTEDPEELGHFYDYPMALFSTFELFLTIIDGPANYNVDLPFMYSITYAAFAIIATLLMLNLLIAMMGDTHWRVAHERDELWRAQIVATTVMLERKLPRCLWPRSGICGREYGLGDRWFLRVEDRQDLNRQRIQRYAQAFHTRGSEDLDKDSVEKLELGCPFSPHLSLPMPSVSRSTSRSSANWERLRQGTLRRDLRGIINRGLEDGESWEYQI
Test: Confocal microscopy of Cd2+ uptake in HEK-hTRPV6 cells (Leadmium Green)
Assay type: cell-based
Design: expressed in transfected cells
Settings: 10 μM, 30 min, versus vehicle
Method: . The cells were also stained with the wheat germ agglutinin Alexa Fluor™ 594 conjugate to mark the cytoplasmic membrane.[35],[36] […]. page 64:
HEK-hTRPV6 were trypsinized and plated at 1 x 10^4 cells/well onto poly-D-lysine coated Nunc Lab-Tek II 8-well chambered coverglass plates (Faust Laborbedarf AG, Schaffhausen) using 100 μl DMEM supplemented with 10% FBS and 2 mM glutamine without antibiotics or phenol-red. After 24 h of incubation at 37 °C, the medium was replaced by 200 µL/well of a mixture of Leadmiun Green (final concentration: 5 ng/µL), Hoechst 33258 (final concentration: 1 ng/µL) and wheat germ agglutinin Alexa Fluor® 594 conjugate (final concentration: 5 ng/µL) in NCF buffer. The chamber was covered with aluminum foil and was incubated at 37 °C for 30 min. Then, the buffer was removed, cells were washed twice with fresh NCF buffer (2 x 200 µL) and another 190 µL of NCF containing 10X of 39 was added. For control cells, 200 µL of NCF was added after washing. The chamber was mounted in the confocal microscope and 10 µL of CdCl2 (final concentration: 50 μM) was added right after the start of imaging (total duration: 30 min). […]
Fig S3. […] The total fluorescence intensity for each channel was plotted in graphs (B) and (D), respectively for DMSO and compound 39. […]

O=c1ccc(CN2CCN([C@H]3CC[C@@](O)(c4cccc(C(F)(F)F)c4)CC3)CC2)c[nH]1 [compound 39]
Leadmium Green fluorescence after Cd2+ (50 μM): significantly less pronounced
